Laboratory results reported in patent US8802597B2, “Herbicidal pyrimidines” (E I du Pont de Nemours and Company, priority 2003, dated 2014).

Key:
Assay type in all cases: in vivo
[1] = tested on: barnyardgrass (Echinochloa crus-galli); assay: Test A pre/postemergence
Procedure, shortened: (§1)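 Seeds in loam–sand blend received preemergence directed soil spray and, concurrently, postemergence application (plants 2–10 cm, 1–2-leaf stage) of compound in non-phytotoxic solvent with surfactant. After about ten days in greenhouse, injury rated visually versus untreated controls, 0 (no effect) to 100 (complete control).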

[2] = tested on: crabgrass (Digitaria sanguinalis); assay: Test A pre/postemergence
Procedure, shortened: as §1

[3] = tested on: giant foxtail (Setaria faberi); assay: Test A pre/postemergence
Procedure, shortened: as §1

[4] = tested on: morningglory (Ipomoea spp.); assay: Test A pre/postemergence
Procedure, shortened: as §1

[5] = tested on: redroot pigweed (Amaranthus retroflexus); assay: Test A pre/postemergence
Procedure, shortened: as §1

[6] = tested on: velvetleaf (Abutilon theophrasti); assay: Test A pre/postemergence
Procedure, shortened: as §1

[7] = tested on: barnyardgrass (Echinochloa crus-galli); assay: Test B flooded paddy test; conditions: Flood, scale 0 to 100
Protocol: (§2) At the same time, plants selected from these crop and weed species and also blackgrass (Alopecurus myosuroides) and wild oat (Avena fatua) were treated with postemergence applications of test chemicals formulated in the same manner. Plants ranged in height from 2 to 18 cm (1- to 4-leaf stage) for postemergence treatments. Plant species in the flooded paddy test consisted of rice (Oryza sativa), umbrella sedge (Cyperus difformis), duck salad (Heteranthera limosa) and barnyardgrass (Echinochloa crus-galli) grown to the 2-leaf stage for testing. Treated plants and controls were maintained in a greenhouse for 13 to 15 days, after which time all species were compared to controls and visually evaluated. Plant response ratings, summarized in Table B, are based on a scale of 0 to 100 where 0 is no effect and 100 is complete control. A dash (-) response means no test result.

[8] = tested on: duck salad (Heteranthera limosa); assay: Test B flooded paddy test; conditions: Flood, scale 0 to 100
Protocol: as §2

rice (Oryza sativa) = assay: Test B flooded paddy test; conditions: Flood, scale 0 to 100
Protocol: as §2

[9] = tested on: umbrella sedge (Cyperus difformis); assay: Test B flooded paddy test; conditions: Flood, scale 0 to 100
Protocol: as §2

[10] = Postemergence, 125 g ai/ha, 0 to 100 scale (0 no effect, 100 complete control)
[11] = Postemergence, 500 g ai/ha, 0 to 100 scale (0 no effect, 100 complete control)
[12] = Preemergence, 125 g ai/ha, 0 to 100 scale where 0 is no effect and 100 is complete control, approximately ten days
[13] = Preemergence, 500 g ai/ha, 0 to 100 scale where 0 is no effect and 100 is complete control, approximately ten days

Row | Compound | Plant response rating, Barnyardgrass [1, 10] | Plant response rating, Barnyardgrass [1, 11] | Plant response rating, Barnyardgrass [1, 12] | Plant response rating, Barnyardgrass [1, 13] | Plant response rating, Crabgrass [2, 10] | Plant response rating, Crabgrass [2, 11] | Plant response rating, Crabgrass [2, 12] | Plant response rating, Crabgrass [2, 13] | Plant response rating, Foxtail, Giant [3, 10] | Plant response rating, Foxtail, Giant [3, 11] | Plant response rating, Foxtail, Giant [3, 12] | Plant response rating, Foxtail, Giant [3, 13] | Plant response rating, Morningglory [4, 10] | Plant response rating, Morningglory [4, 11] | Plant response rating, Morningglory [4, 12] | Plant response rating, Morningglory [4, 13] | Plant response rating, Pigweed [5, 10] | Plant response rating, Pigweed [5, 11] | Plant response rating, Pigweed [5, 12] | Plant response rating, Pigweed [5, 13] | further results
1 | Nc1nc(C2CC2)nc(C(=O)OCc2ccc(Cl)cc2)c1Cl [Compound 80] | 55 | 90 | 10 | 80 | 30 | 70 | 45 | 85 | 70 | 90 | 15 | 70 | 90 | 95 | 90 | 100 | 65 | 95 | 80 | 90 | Plant response rating, Velvetleaf [6, 10]: 65; Plant response rating, Velvetleaf [6, 11]: 90; Plant response rating, Velvetleaf [6, 12]: 75; Plant response rating, Velvetleaf [6, 13]: 90; Plant response rating, Barnyardgrass ([7]; 125 g ai/ha): 0; Plant response rating, Barnyardgrass ([7]; 500 g ai/ha): 50; Plant response rating, Ducksalad ([8]; 125 g ai/ha): 50; Plant response rating, Ducksalad ([8]; 500 g ai/ha): 70; Plant response rating, Rice (rice (Oryza sativa); 125 g ai/ha): 0; Plant response rating, Rice (rice (Oryza sativa); 500 g ai/ha): 50; Plant response rating, Sedge, Umbrella ([9]; 125 g ai/ha): 20; Plant response rating, Sedge, Umbrella ([9]; 500 g ai/ha): 70
2 | CCOC(=O)c1nc(-c2ccc(C(F)(F)F)cc2)nc(N)c1Br [Compound 60] | 0 | 0 | 0 | 0 | 0 | 0 | 0 | 0 | 0 | 0 | 0 | 0 | 0 | 20 | 0 | 0 | 10 | 40 | 0 | 0 | Plant response rating, Velvetleaf [6, 10]: 30; Plant response rating, Velvetleaf [6, 11]: 40; Plant response rating, Velvetleaf [6, 12]: 0; Plant response rating, Velvetleaf [6, 13]: 0; Plant response rating, Barnyardgrass ([7]; 125 g ai/ha): 0; Plant response rating, Barnyardgrass ([7]; 500 g ai/ha): 20; Plant response rating, Ducksalad ([8]; 125 g ai/ha): 80; Plant response rating, Ducksalad ([8]; 500 g ai/ha): 90; Plant response rating, Rice (rice (Oryza sativa); 125 g ai/ha): 0; Plant response rating, Rice (rice (Oryza sativa); 500 g ai/ha): 0; Plant response rating, Sedge, Umbrella ([9]; 125 g ai/ha): 0; Plant response rating, Sedge, Umbrella ([9]; 500 g ai/ha): 30
